Measurements published in the C3SDB collision cross section collection.
Several values for one entry are separate records, joined by “and”; a condition that tells them apart may be missing. Equal values may be shown once.

Tests used:
[1] = instrument: DT, single field
[2] = instrument: DT, single field, calibrated with Agilent tune mix (Agilent)
[3] = [M+Na]+; instrument: DT; stepped-field

Compound | collision cross section (N2) ([1]; [M+NH4]+) | collision cross section (N2) ([1]; [M+Na]+) | collision cross section (N2) ([2]; [M+NH4]+) [Å²] | also measured
CCCCCCCCCCCCCCCC(=O)OC[C@H](COP(=O)([O-])OCC[N+](C)(C)C)OC(=O)CCCCCCCCCCCCC [PC(30:0)] |  |  |  | collision cross section (N2) ([1]; [M+H]+): 276.5 Å² and 277.83 Å²; collision cross section (N2) ([2]; [M+H]+): 276.8 Å²
CCCCCCCCCCCCC=CC[C@@H](O)[C@H](COP(=O)([O-])OCC[N+](C)(C)C)NC(=O)CCCCCCCCCCCCC [SM(32:1)] |  |  |  | collision cross section (N2) ([1]; [M+H]+): 275.46 Å²; collision cross section (N2) ([2]; [M+H]+): 276.6 Å²
CCCCCCCCCCCCC=CC[C@@H](O)[C@H](COP(=O)([O-])OCC[N+](C)(C)C)NC(=O)CCCCCCCCCCCCCCC [SM(34:1)] |  |  |  | collision cross section (N2) [3]: 285.1 Å²; collision cross section (N2) ([1]; [M+H]+): 281.13 Å²; collision cross section (N2) ([2]; [M+HCOO]-): 280.9 Å²; collision cross section (N2) ([2]; [M+H]+): 283.9 Å²
CCCCC/C=C\C/C=C\C/C=C\CCCCCCCCC(=O)OC[C@@H](COC(=O)CCCCCCCCCCC)OC(=O)CCCCCCCCCCC [TG(46:3)] | 297.58 Å² and 299.43 Å² | 297 Å² and 298.89 Å² | 297.1 | 
CCCCC/C=C\C/C=C\C/C=C\CCCCCCCCC(=O)OC[C@@H](COC(=O)CCCCCCCCCCCC)OC(=O)CCCCCCCCCCCC [TG(48:3)] | 304.89 Å² and 307.09 Å² | 304.27 Å² and 306.32 Å² | 304.8 | 
CCCCCCCCC/C=C\CCCCCCCC(=O)OC[C@@H](COC(=O)CCCCCCCCCCCCCC)OC(=O)CCCCCCCCCCCCCC [TG(49:1)] |  | 311.82 Å² and 313.77 Å² | 313 | 
CCCC/C=C\CCCCCCCC(=O)OC[C@H](COC(=O)CCCCCCCCCCCCCCCCCCCC)OC(=O)CCCCCCC/C=C\CCCC [TG(49:2)] |  | 309.35 Å² and 311.09 Å² | 310.5 | 
CCCCC/C=C\C/C=C\C/C=C\C/C=C\CCCCCC(=O)OC[C@@H](COC(=O)CCCCCCCCCCCCC)OC(=O)CCCCCCCCCCCCC [TG(50:4)] |  | 308.43 Å² and 310.33 Å² and 312.33 Å² | 309.5 | 
CCCCC/C=C\C/C=C\C/C=C\C/C=C\CCCC(=O)OC[C@@H](COC(=O)CCCCCCCCCCC)OC(=O)CCCCCCC/C=C\CCCCCCCC [TG(50:5)] |  | 308.34 Å² and 309.51 Å² |  | 
CCCCC/C=C\C/C=C\CCCCCCCC(=O)OC[C@@H](COC(=O)CCCCCCC/C=C\CCCCC)OC(=O)CCCCCCC/C=C\C/C=C\CCCCC [TG(51:5)] | 312.57 Å² |  |  | 
CCCCCCCC/C=C\CCCCCCCCCC(=O)OC[C@@H](COC(=O)CCCCCCCCCCC)OC(=O)CCCCCCCCC/C=C\CCCCCCCC [TG(52:2)] |  | 319.25 Å² and 320.86 Å² and 321.71 Å² |  | 
CCCCC/C=C\C/C=C\C/C=C\C/C=C\CCCC(=O)OC[C@@H](COC(=O)CCCCCCCCCCCCC)OC(=O)CCCCCCCCCCCCCCCCC [TG(52:4)] |  | 314.5 Å² and 316.78 Å² | 317.6 | 
CCCCC/C=C\C/C=C\C/C=C\C/C=C\CCCC(=O)OC[C@@H](COC(=O)CCCCCCCCCCCCCC)OC(=O)CCCCCCCCCCCCCCCCC [TG(53:4)] | 318.08 Å² and 320.09 Å² and 324.43 Å² | 319.39 Å² | 319.5 | 
CCCCCCCCCCCCCCCCCCCCC(=O)OC[C@@H](COC(=O)CCCCCCCCCCC)OC(=O)CCCCCCCCCCCCCCCCCCCC [TG(54:0)] | 331.43 Å² |  |  | 
CCCCC/C=C\C/C=C\C/C=C\C/C=C\CCCC(=O)OC[C@@H](COC(=O)CCCCCCCCCCCCC)OC(=O)CCCCCCCCCCCCCCCCCCC [TG(54:4)] | 321.8 Å² and 324.34 Å² and 326.13 Å² | 320.63 Å² and 322.94 Å² |  | 
CC/C=C\C/C=C\C/C=C\C/C=C\CCCCC(=O)OC[C@@H](COC(=O)CCCCCCCCCCCCCCCCC)OC(=O)CCCC/C=C\C/C=C\C/C=C\CCCCC [TG(54:7)] | 317.23 Å² and 320 Å² | 316.19 Å² | 318 | 
CCCC/C=C\C/C=C\CCCCCCCC(=O)OC[C@H](COC(=O)CCCCCCCCC/C=C\CCCCCCCCCC)OC(=O)CCCCCCC/C=C\C/C=C\CCCC [TG(56:5)] |  | 327.06 Å² and 327.86 Å² |  | 
CC/C=C\C/C=C\C/C=C\C/C=C\C/C=C\CCCCCC(=O)OC[C@@H](COC(=O)CCCCCCC/C=C\CCCCC)OC(=O)CCCCCCCCCCCCCCCCCC [TG(56:6)] |  | 326.57 Å² and 325 Å² | 328.3 | 
CCCCCCCCCC/C=C\CCCCCCCCCC(=O)OC[C@@H](COC(=O)CCCCCCCCCCCC)OC(=O)CCCCCCCCC/C=C\CCCCCCCCCC [TG(57:2)] | 338.57 Å² and 340.8 Å² |  | 334.6 | 
CCCCC/C=C\C/C=C\CCCCCCCCCCCC(=O)OC[C@@H](COC(=O)CCCCCCCCCCCC)OC(=O)CCCCCCCCC/C=C\CCCCCCCCCC [TG(57:3)] | 336.68 Å² and 339.26 Å² |  | 332.9 | 
CCCCC/C=C\C/C=C\C/C=C\CCCCC(=O)O[C@H](COC(=O)CCCCCCC/C=C\CCCCCCC)COC(=O)CCCCCCCCCCCCCCCCCCCCC [TG(57:4)] | 334.57 Å² and 337.31 Å² |  |  | 
CCCCCCCCCC/C=C\CCCCCCCCCC(=O)OC[C@@H](COC(=O)CCCCCCCCCCCCC)OC(=O)CCCCCCCCC/C=C\CCCCCCCCCC [TG(58:2)] | 341.17 Å² and 343.91 Å² and 338.53 Å² |  | 337.8 | 
CC/C=C\C/C=C\C/C=C\C/C=C\C/C=C\C/C=C\CCC(=O)OC[C@@H](COC(=O)CCCCCCCCCCCCCCC)OC(=O)CCCCCCCCCCCCCCCCCCC [TG(58:6)] | 333.74 Å² |  |  | 
CCCCCCCCC/C=C\CCCCCCCC(=O)OC[C@H](COC(=O)CCCCCCCCCCCCCCCCCCCCC)OC(=O)CCCCCCC/C=C\CCCCCCCCC [TG(60:2)] | 346.03 Å² |  |  | 
CCCCCC/C=C\CCCCCCCC(=O)OC[C@H](COC(=O)CCCCCCCCC/C=C\CCCCCCCCCC)OC(=O)CCCCCCCCC/C=C\CCCCCCCCCC [TG(60:3)] | 344.73 Å² and 347.66 Å² and 343.58 Å² |  |  | 
CCCCC/C=C\C/C=C\CCCCCCCCCC(=O)O[C@H](COC(=O)CCCCCCC/C=C\CCCCCCCC)COC(=O)CCCCCCCCCCC/C=C\CCCCCCCC [TG(60:4)] | 342.69 Å² and 347.03 Å² |  | 340.7 | 
